According to ChEMBL document CHEMBL1201862, “PubChem BioAssay data set” (2004):
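Exposure lasted 48 hours, with cells grown in 96-well plates and compounds tested at five concentrations. GI50: concentration for 50% inhibition of growth.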 Active and inactive are the calls of the source. Cut-off read from the data, not from the text of the source: active = GI50 up to about 1.1 µM and inactive = higher.

Key:
Experiment in all cases: growth of human tumour cells (NCI), 48 h
[1] = system: ACHN
[2] = system: COLO 205
[3] = system: HCT-15
[4] = system: HL-60
[5] = system: HOP-92
[6] = system: IGROV-1
[7] = system: KM12
[8] = system: MOLT-4
[9] = system: NCI-H226
[10] = system: OVCAR-3
[11] = system: OVCAR-5
[12] = system: PC-3
[13] = system: SNB-19
[14] = system: SW-620
[15] = system: TK-10
[16] = system: UACC-62
[17] = system: HOP-62

Structure (SMILES) | GI50 [1] | GI50 [2] | GI50 [3] | GI50 [4] | GI50 [5] | GI50 [6] | GI50 [7] | GI50 [8] | GI50 [9] | GI50 [10] | GI50 [11] | GI50 [12] | GI50 [13] | GI50 [14] | GI50 [15] | GI50 [16] | GI50 [17]
O=C(CC(O)(C(F)(F)F)C(F)(F)F)C(c1ccccc1)C(O)(C(F)(F)F)C(F)(F)F (stereo unspecified) | 17.4 µM (inactive) | 11.4 µM (inactive) | 9.53 µM | 9.71 µM (inactive) | 3.72 µM (inactive) | 5.77 µM (inactive) | 8.55 µM (inactive) | 62.8 µM (inactive) | 42.8 µM (inactive) | 11.5 µM (inactive) | > 100 µM (inactive) | 4.15 µM (inactive) | 18.3 µM (inactive) | 14.4 µM (inactive) | 26.3 µM (inactive) | 20.5 µM (inactive) | 
CC(C)/C(Cl)=N\OC(NC(=O)P(=O)(c1ccccc1)c1ccccc1)(C(F)(F)F)C(F)(F)F | 3.62 µM (inactive) | 11.7 µM (inactive) | 15.9 µM | 11.5 µM (inactive) | 2.46 µM (inactive) | 10.8 µM (inactive) | 7.26 µM (inactive) | 8.05 µM (inactive) | 10.3 µM (inactive) | 4.97 µM (inactive) | 24.3 µM (inactive) | 12.6 µM (inactive) | 17.9 µM (inactive) | 21.7 µM (inactive) | 11.7 µM (inactive) | 16 µM (inactive) | 17.3 µM (inactive)
CC(=O)OC(C)(C)[C@H]1O[C@]23O[C@]1(C)C[C@@H](C)[C@@H]2[C@@]1(C)CC[C@@]24C[C@@]25CC[C@H](O[C@@H]2OC[C@@H](O)[C@H](O)[C@H]2O)C(C)(C)[C@@H]5CC[C@H]4[C@]1(C)[C@H]3O | 6.07 µM (inactive) | 9.12 µM (inactive) | 3.41 µM | 2.03 µM (inactive) | 9.02 µM (inactive) | 7.08 µM (inactive) | 3.35 µM (inactive) | 5.32 µM (inactive) | 8.59 µM (inactive) | 3.59 µM (inactive) | 11.8 µM (inactive) | 4.65 µM (inactive) | 6.27 µM (inactive) | 4.34 µM (inactive) | 10 µM (inactive) | 14.6 µM (inactive) | 11.9 µM (inactive)
CC1=C(C)CC2C(=O)N(c3cc(C(C)(C)C)ccc3C(C)(C)C)C(=O)C2C1 (stereo unspecified) | 5.38 µM (inactive) | > 100 µM (inactive) | > 100 µM | > 100 µM (inactive) | 26.2 µM (inactive) | 61 µM (inactive) | > 100 µM (inactive) | > 100 µM (inactive) | > 100 µM (inactive) | 66.2 µM (inactive) | > 100 µM (inactive) | 62.2 µM (inactive) | 23.1 µM (inactive) | > 100 µM (inactive) | 66.1 µM (inactive) | 14.5 µM (inactive) | 26.2 µM (inactive)
O=[N+]([O-])c1ccc(/N=N/N2CCCC2)cc1 | > 100 µM (inactive) | > 100 µM (inactive) | > 100 µM | 32.2 µM (inactive) | > 100 µM (inactive) | > 100 µM (inactive) | > 100 µM (inactive) | > 100 µM (inactive) | > 100 µM (inactive) | > 100 µM (inactive) | > 100 µM (inactive) | > 100 µM (inactive) | > 100 µM (inactive) | > 100 µM (inactive) | > 100 µM (inactive) | > 100 µM (inactive) | > 100 µM (inactive)
Cc1cccc(/C=N/NC(=S)NC2CCCCC2)n1 | 25.8 µM (inactive) | 8.85 µM (inactive) | 5.26 µM | 2.86 µM (inactive) | 10.1 µM (inactive) | 21.3 µM (inactive) | 31.1 µM (inactive) | 2.26 µM (inactive) | 15.7 µM (inactive) | 3.7 µM (inactive) | 15.2 µM (inactive) | 6.73 µM (inactive) | 34.8 µM (inactive) | 9.25 µM (inactive) | 58.5 µM (inactive) | 21.3 µM (inactive) | 20.9 µM (inactive)
N#CC1=C(N2CCCC2)NC(=O)CC1=O | > 100 µM (inactive) | > 100 µM (inactive) | > 100 µM | > 100 µM (inactive) | > 100 µM (inactive) | > 100 µM (inactive) | > 100 µM (inactive) | > 100 µM (inactive) | > 100 µM (inactive) | > 100 µM (inactive) | > 100 µM (inactive) | > 100 µM (inactive) | > 100 µM (inactive) | > 100 µM (inactive) | > 100 µM (inactive) | > 100 µM (inactive) | > 100 µM (inactive)
Nc1nc(Cl)c(N)c(NCC2(CO)CCCC2)n1 | > 100 µM (inactive) |  | > 100 µM | > 100 µM (inactive) | > 100 µM (inactive) | 84.7 µM (inactive) | > 100 µM (inactive) | 74.8 µM (inactive) | > 100 µM (inactive) | 62.1 µM (inactive) | > 100 µM (inactive) | > 100 µM (inactive) | > 100 µM (inactive) | > 100 µM (inactive) | > 100 µM (inactive) | 1.83 µM (inactive) | 88.5 µM (inactive)
CCOC(=O)Nn1c(CC#N)nnc1Cc1ccccc1 | > 100 µM (inactive) |  | > 100 µM | > 100 µM (inactive) | > 100 µM (inactive) | > 100 µM (inactive) | > 100 µM (inactive) | > 100 µM (inactive) | > 100 µM (inactive) | > 100 µM (inactive) | > 100 µM (inactive) | > 100 µM (inactive) | > 100 µM (inactive) | > 100 µM (inactive) | > 100 µM (inactive) | > 100 µM (inactive) | > 100 µM (inactive)
CC(=O)OCCn1cnc2c(NCC=C(C)C)ncnc21 | > 100 µM (inactive) | > 100 µM (inactive) |  | > 100 µM (inactive) | > 100 µM (inactive) | > 100 µM (inactive) | > 100 µM (inactive) | > 100 µM (inactive) | > 100 µM (inactive) | > 100 µM (inactive) | > 100 µM (inactive) | > 100 µM (inactive) | > 100 µM (inactive) | > 100 µM (inactive) | > 100 µM (inactive) |  | > 100 µM (inactive)
CC(=O)NC1C(OCc2ccccc2)OC(CO)C(O)C1OC(C)C(=O)NC(C(=O)N[C@@H](CCC(=O)NCCNCCNc1c2ccccc2nc2cccc([N+](=O)[O-])c12)C(N)=O)C(C)C (stereo partly specified) | 16.4 µM (inactive) | 20.1 µM (inactive) | 24.7 µM | 10.1 µM (inactive) | 18.2 µM (inactive) | 33.6 µM (inactive) | 26.5 µM (inactive) | 23.6 µM (inactive) | > 100 µM (inactive) | 25.8 µM (inactive) |  | 28.4 µM (inactive) | 64.1 µM (inactive) | 13.2 µM (inactive) | 37.8 µM (inactive) |  | 30.1 µM (inactive)
O=NNc1cnc(O)nc1O | > 100 µM (inactive) | > 100 µM (inactive) | > 100 µM | 49.3 µM (inactive) | > 100 µM (inactive) | 52.4 µM (inactive) | > 100 µM (inactive) | > 100 µM (inactive) | > 100 µM (inactive) | 74.8 µM (inactive) |  | > 100 µM (inactive) | > 100 µM (inactive) | > 100 µM (inactive) | > 100 µM (inactive) | 71.3 µM (inactive) | > 100 µM (inactive)
